According to US20260216164A1, “INDOLE COMPOUND DECOMPOSING IKZF2, AND USE THEREOF” (KOREA RESEARCH INSTITUTE OF CHEMICAL TECHNOLOGY, priority 2023, published 2026):

How the values were obtained:
[1] = target: Helios (IKZF2) (Homo sapiens, UniProt Q96SW2+Q9UKS7); assay: Screening of Helios protein degraders using Nano-Glo HiBiT cell line (HiBiT-IKZF2); format: cell-based; conditions: 6 hours, HiBiT-Helios knock-in Jurkat cells; for remaining activity at 1 µM: compound 1 μM, read-out: HiBiT-IKZF2 Residual amount of Helios (%) 1 μM; for remaining activity at 10 µM: compound 10 μM, read-out: HiBiT-IKZF2 Residual amount of Helios (%) 10 μM
[2] = target: IKZF2 (Helios) (Homo sapiens, UniProt Q96SW2+Q9UKS7); assay: Screening of DC50 (nM) and Dmax (%) using WB-IKZF2 cell line (Western blot); format: cell-based; design: endogenous in cells; conditions: 6 hours; for DC50: class symbols, read-out: WB-IKZF2 DC 50
Method: Experimental Example 2. Screening of DC50 (nM) and Dmax (%) Using WB-IKZF2 Cell Line
Candidate degraders were serially diluted and treated in cells cultured in complete medium, followed by incubation for 6 hours at 37° C. in a CO2 incubator. After 6 hours, the cells were harvested and lysed in RIPA buffer (150 mM NaCl, 1% Triton X-100, 1% sodium deoxycholate, 0.1% SDS, 50 mM Tris-HCl pH 7.5, and 2 mM EDTA) containing a protease inhibitor cocktail (Roche). The mixture was vortexed every 10 minutes and incubated on ice for 30 minutes, followed by centrifugation at 13,000 rpm for 10 minutes at 4° C. to isolate proteins. The isolated proteins were quantified using the Bradford assay (Bio-Rad, 5000006). Proteins were separated on 8% SDS-polyacrylamide gel, transferred onto nitrocellulose membranes (Amersham, 10600002), and incubated with primary antibodies at 4° C. for 18 hours. The following primary antibodies were used: anti-Helios rabbit monoclonal antibody (Cell Signaling, 42427, 1:3000) and anti-β-actin mouse monoclonal antibody (Santa Cruz, sc-47778, 1:5000). β-actin was used as a loading control. The next day, the membranes were washed with 1×TBST for 30 minutes and incubated with HRP-conjugated secondary antibodies corresponding to the primary antibodies at room temperature for 1 hour. The following secondary antibodies were used: anti-mouse IgG HRP-linked antibody (Sigma, A9044, 1:5000) and anti-rabbit IgG HRP-linked antibody (Cell Signaling, 7074, 1:5000). After washing with 1×TBST for 30 minutes, protein expression was visualized using the Pierce ECL Western blotting substrate (Thermo Fisher, 32106), and images were captured using a chemiluminescence image analysis system (GE Healthcare, AI680). The obtained images were quantified using the ImageJ software.

Sequence of IKZF2 (Helios) (Q9UKS7 whole entry): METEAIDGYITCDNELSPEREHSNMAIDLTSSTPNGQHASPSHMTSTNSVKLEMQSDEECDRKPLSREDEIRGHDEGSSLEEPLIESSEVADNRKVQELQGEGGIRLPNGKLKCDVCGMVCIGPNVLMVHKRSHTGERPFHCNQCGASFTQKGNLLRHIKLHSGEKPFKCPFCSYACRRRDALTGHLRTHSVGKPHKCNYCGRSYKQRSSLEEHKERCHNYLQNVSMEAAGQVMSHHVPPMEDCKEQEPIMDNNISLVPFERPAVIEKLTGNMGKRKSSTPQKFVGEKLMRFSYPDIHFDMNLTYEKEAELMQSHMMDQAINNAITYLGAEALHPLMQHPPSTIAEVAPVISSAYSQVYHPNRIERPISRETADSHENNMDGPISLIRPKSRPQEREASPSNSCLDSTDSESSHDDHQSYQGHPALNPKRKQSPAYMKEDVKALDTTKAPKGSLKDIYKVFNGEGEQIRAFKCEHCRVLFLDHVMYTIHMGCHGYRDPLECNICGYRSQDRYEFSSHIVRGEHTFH
Sequence of IKZF2 (Helios) (Q96SW2 whole entry): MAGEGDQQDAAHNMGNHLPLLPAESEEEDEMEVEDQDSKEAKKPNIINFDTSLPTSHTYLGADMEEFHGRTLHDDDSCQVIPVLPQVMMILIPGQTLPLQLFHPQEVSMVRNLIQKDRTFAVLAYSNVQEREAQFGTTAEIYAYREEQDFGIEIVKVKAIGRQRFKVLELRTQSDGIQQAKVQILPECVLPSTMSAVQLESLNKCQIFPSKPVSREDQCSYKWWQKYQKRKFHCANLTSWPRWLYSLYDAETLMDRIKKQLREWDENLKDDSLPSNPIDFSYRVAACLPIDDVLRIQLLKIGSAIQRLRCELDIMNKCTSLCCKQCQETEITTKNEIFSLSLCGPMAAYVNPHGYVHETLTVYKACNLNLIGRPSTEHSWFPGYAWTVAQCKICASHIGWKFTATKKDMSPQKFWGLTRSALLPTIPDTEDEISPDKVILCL
Sequence of IKZF2 (Helios) (Q16531 whole entry partner): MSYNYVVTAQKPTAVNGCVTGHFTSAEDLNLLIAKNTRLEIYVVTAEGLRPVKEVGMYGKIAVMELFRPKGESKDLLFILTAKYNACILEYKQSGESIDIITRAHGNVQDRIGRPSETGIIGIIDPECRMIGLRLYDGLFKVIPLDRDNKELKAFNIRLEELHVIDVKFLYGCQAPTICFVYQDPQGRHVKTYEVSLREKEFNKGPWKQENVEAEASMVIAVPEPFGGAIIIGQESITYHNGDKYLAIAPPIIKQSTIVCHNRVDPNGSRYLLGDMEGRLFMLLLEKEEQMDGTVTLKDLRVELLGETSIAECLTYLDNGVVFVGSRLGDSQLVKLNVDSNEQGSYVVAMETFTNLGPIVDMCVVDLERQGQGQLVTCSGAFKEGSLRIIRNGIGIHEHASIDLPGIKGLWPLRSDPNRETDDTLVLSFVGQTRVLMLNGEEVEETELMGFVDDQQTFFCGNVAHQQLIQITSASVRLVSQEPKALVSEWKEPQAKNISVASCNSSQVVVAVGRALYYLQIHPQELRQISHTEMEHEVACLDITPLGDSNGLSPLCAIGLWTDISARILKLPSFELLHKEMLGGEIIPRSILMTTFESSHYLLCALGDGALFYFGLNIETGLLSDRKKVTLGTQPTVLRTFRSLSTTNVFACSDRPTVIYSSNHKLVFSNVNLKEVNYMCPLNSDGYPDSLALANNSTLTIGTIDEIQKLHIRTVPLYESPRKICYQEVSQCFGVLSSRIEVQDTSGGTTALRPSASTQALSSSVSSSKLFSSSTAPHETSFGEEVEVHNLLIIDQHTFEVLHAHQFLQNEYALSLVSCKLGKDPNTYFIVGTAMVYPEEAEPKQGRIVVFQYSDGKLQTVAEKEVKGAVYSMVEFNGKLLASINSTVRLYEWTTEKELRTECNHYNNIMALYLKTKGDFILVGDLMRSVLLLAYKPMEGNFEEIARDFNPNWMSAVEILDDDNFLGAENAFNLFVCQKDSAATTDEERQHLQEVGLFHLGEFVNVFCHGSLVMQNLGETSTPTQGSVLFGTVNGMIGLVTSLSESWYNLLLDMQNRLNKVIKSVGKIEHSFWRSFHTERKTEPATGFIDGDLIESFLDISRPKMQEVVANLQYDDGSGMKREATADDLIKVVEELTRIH
Sequence of Helios (IKZF2) (Q9UKS7 whole entry): as the sequence (Q9UKS7 whole entry) above
Sequence of Helios (IKZF2) (Q96SW2 whole entry): as the sequence (Q96SW2 whole entry) above
Sequence of Helios (IKZF2) (Q16531 whole entry partner): as the sequence (Q16531 whole entry partner) above

Row | Structure (SMILES) | remaining activity at 1 µM [1] | remaining activity at 10 µM [1] | DC50 [2] | Dmax [2]
1 | Cc1c(C(=O)N2CCC(c3ccc4c(c3)CN(C3CCC(=O)NC3=O)C4=O)CC2)[nH]c2cc(O)ccc12 (centres unmarked) [Compound 47, 3-(5-(1-(6-hydroxy-3-methyl-1H-indole-2-carbonyl)piperidin-4-yl)-1-oxoinsoindolin-2-yl)piperidine-2,6-dione] | 27.9% | 24% | 100 to 1000 nM | –
2 | Cc1c(C(=O)N2CCC(c3ccc4c(c3)CN(C3CCC(=O)NC3=O)C4=O)CC2)[nH]c2cc(Cl)c(F)cc12 (centres unmarked) [Compound 102, 3-(5-(1-(6-chloro-5-fluoro-3-methyl-1H-indole-2-carbonyl)piperidin-4-yl)-1-oxoinsoindolin-2-yl)piperidine-2,6-dione] | 21.8% | 26.2% | < 10 nM | 100%
3 | Cc1c(C(=O)N2CCC(c3ccc4c(c3)CN(C3CCC(=O)NC3=O)C4=O)CC2)[nH]c2cc(OC(F)(F)F)ccc12 (centres unmarked) [Compound 53, 3-(5-(1-(3-methyl-6-(trifluoromethoxy)-1H-indole-2-carbonyl)piperidin-4-yl)-1-oxoinsoindolin-2-yl)piperidine-2,6-dione] | – | 7.7% | 100 to 1000 nM | –
4 | Cc1c(C(=O)N2CCC(c3ccc4c(c3F)CN(C3CCC(=O)NC3=O)C4=O)CC2)[nH]c2c(F)c(Cl)ccc12 (centres unmarked) [Compound 117, 3-(5-(1-(6-chloro-7-fluoro-3-methyl-1H-indole-2-carbonyl)piperidin-4-yl)-4-fluoro-1-oxoinsoindolin-2-yl)piperidine-2,6-dione] | – | – | < 10 nM | –
5 | Cc1c(C(=O)N2CCC(c3ccc4c(c3)CN(C3CCC(=O)NC3=O)C4=O)CC2)[nH]c2cc(C#N)ccc12 (centres unmarked) [Compound 52, 2-(4-(2-(2,6-dioxopiperidin-3-yl)-1-oxoindolin-5-yl)piperidine-1-carbonyl)-3-methyl-1H-indole-6-carbonitrile] | – | 10.8% | 10 to 100 nM | –
6 | Cc1c(C(=O)N2CCC(c3ccc4c(c3F)C(=O)N(C3CCC(=O)NC3=O)C4=O)CC2)[nH]c2cc(Cl)ccc12 (centres unmarked) [Compound 121, 5-(1-(6-chloro-3-methyl-1H-indole-2-carbonyl)piperidin-4-yl)-2-(2,6-dioxopiperidin-3-yl)-4-fluoroisoindoline-1,3-dione] | – | – | 100 to 1000 nM | –
7 | Cc1c(C(=O)N2CCC(c3ccc4c(c3)CN(C3CCC(=O)NC3=O)C4=O)CC2)[nH]c2cc([N+](=O)[O-])c(O)cc12 (centres unmarked) [Compound 86, 3-(5-(1-(5-hydroxy-3-methyl-6-nitro-1H-indole-2-carbonyl)piperidin-4-yl)-1-oxoinsoindolin-2-yl)piperidine-2,6-dione] | – | 9.9% | 10 to 100 nM | –
8 | COc1cc2c(C)c(C(=O)N3CCC(c4ccc5c(c4)CN(C4CCC(=O)NC4=O)C5=O)CC3)[nH]c2cc1Cl (centres unmarked) [Compound 71, 3-(5-(1-(6-chloro-5-methoxy-3-methyl-1H-indole-2-carbonyl)piperidin-4-yl)-1-oxoinsoindolin-2-yl)piperidine-2,6-dione] | 14.2% | 25.3% | < 10 nM | 100%
9 | COc1cc2c(C)c(C(=O)N3CCC(c4ccc5c(c4F)CN(C4CCC(=O)NC4=O)C5=O)CC3)[nH]c2cc1Cl (centres unmarked) [Compound 108, 3-(5-(1-(6-chloro-5-methoxy-3-methyl-1H-indole-2-carbonyl)piperidin-4-yl)-4-fluoro-1-oxoinsoindolin-2-yl)piperidine-2,6-dione] | 8.3% | 7.5% | < 10 nM | 100%

Second part, the compound after the results:

Row | remaining activity at 1 µM [1] | remaining activity at 10 µM [1] | DC50 [2] | Dmax [2] | Structure (SMILES)
10 | – | 8.7% | 100 to 1000 nM | – | CN(C)Cc1c(C(=O)N2CCC(c3ccc4c(c3)CN(C3CCC(=O)NC3=O)C4=O)CC2)[nH]c2cc(Cl)ccc12 (centres unmarked) [Compound 87, 3-(5-(1-(6-chloro-3-((dimethylamino)methyl)-1H-indole-2-carbonyl)piperidin-4-yl)-1-oxoinsoindolin-2-yl)piperidine-2,6-dione]
11 | – | 8.5% | < 10 nM | 100% | Cc1c(C(=O)N2CCC(c3ccc4c(c3F)CN(C3CCC(=O)NC3=O)C4=O)CC2)[nH]c2cc([N+](=O)[O-])ccc12 (centres unmarked) [Compound 94, 3-(4-fluoro-5-(1-(3-methyl-6-nitro-1H-indole-2-carbonyl)piperidin-4-yl)-1-oxoinsoindolin-2-yl)piperidine-2,6-dione]
12 | – | 26.5% | < 10 nM | 100% | Cc1c(C(=O)N2CCC(c3cc4c(cc3F)C(=O)N(C3CCC(=O)NC3=O)C4)CC2)[nH]c2cc([N+](=O)[O-])ccc12 (centres unmarked) [Compound 93, 3-(6-fluoro-5-(1-(3-methyl-6-nitro-1H-indole-2-carbonyl)piperidin-4-yl)-1-oxoinsoindolin-2-yl)piperidine-2,6-dione]
13 | – | 5.4% | 10 to 100 nM | – | Cc1c(C(=O)N2CCC(c3ccc4c(c3)CN(C3CCC(=O)NC3=O)C4=O)CC2C)[nH]c2cc(Cl)ccc12 (centres unmarked) [Compound 60, 3-(5-(1-(6-chloro-3-methyl-1H-indole-2-carbonyl)-2-methylpiperidin-4-yl)-1-oxoinsoindolin-2-yl)piperidine-2,6-dione]
14 | 23% | – | 10 to 100 nM | 98% | Cc1c(C(=O)N2CCC(c3cc4c(cc3F)C(=O)N(C3CCC(=O)NC3=O)C4)CC2)[nH]c2cc(Cl)c(F)cc12 (centres unmarked) [Compound 112, 3-(5-(1-(6-chloro-5-fluoro-3-methyl-1H-indole-2-carbonyl)piperidin-4-yl)-6-fluoro-1-oxoinsoindolin-2-yl)piperidine-2,6-dione]
15 | 14.6% | 21.4% | 10 to 100 nM | – | COc1cc2c(C)c(C(=O)N3CCC(c4ccc5c(c4)CN(C4CCC(=O)NC4=O)C5=O)CC3)[nH]c2cc1[N+](=O)[O-] (centres unmarked) [Compound 97, 3-(5-(1-(5-methoxy-3-methyl-6-nitro-1H-indole-2-carbonyl)piperidin-4-yl)-1-oxoinsoindolin-2-yl)piperidine-2,6-dione]
16 | 34.6% | – | < 10 nM | 100% | Cc1c(C(=O)N2CCC(c3ccc4c(c3F)CN(C3CCC(=O)NC3=O)C4=O)CC2)[nH]c2cc(Cl)c(O)cc12 (centres unmarked) [Compound 115, 3-(5-(1-(6-chloro-5-hydroxy-3-methyl-1H-indole-2-carbonyl)piperidin-4-yl)-4-fluoro-1-oxoinsoindolin-2-yl)piperidine-2,6-dione]
17 | – | 8.1% | 10 to 100 nM | – | Cc1c(C(=O)N2CCC(O)(c3ccc4c(c3)CN(C3CCC(=O)NC3=O)C4=O)CC2)[nH]c2cc(Cl)ccc12 (centres unmarked) [Compound 64, 3-(5-(1-(6-chloro-3-methyl-1H-indole-2-carbonyl)-4-hydroxypiperidin-4-yl)-1-oxoinsoindolin-2-yl)piperidine-2,6-dione]
18 | 10.9% | 14.6% | 10 to 100 nM | – | Cc1c(C(=O)N2CCC(c3ccc4c(c3)CN(C3CCC(=O)NC3=O)C4=O)CC2)[nH]c2c(F)c(Cl)ccc12 (centres unmarked) [Compound 99, 3-(5-(1-(6-chloro-7-fluoro-3-methyl-1H-indole-2-carbonyl)piperidin-4-yl)-1-oxoinsoindolin-2-yl)piperidine-2,6-dione]
19 | – | 8.67% | 100 to 1000 nM | – | Cc1c(C(=O)N2CCC(c3ccc4c(c3)CN(C3CCC(=O)NC3=O)C4=O)CC2)[nH]c2cc(Br)ccc12 (centres unmarked) [Compound 49, 3-(5-(1-(6-bromo-3-methyl-1H-indole-2-carbonyl)piperidin-4-yl)-1-oxoinsoindolin-2-yl)piperidine-2,6-dione]
20 | – | 6.4% | < 10 nM | 100% | Cc1c(C(=O)N2CCC(c3ccc4c(c3F)CN(C3CCC(=O)NC3=O)C4=O)CC2)[nH]c2cc(Cl)ccc12 (centres unmarked) [Compound 91, 3-(5-(1-(6-chloro-3-methyl-1H-indole-2-carbonyl)piperidin-4-yl)-4-fluoro-1-oxoinsoindolin-2-yl)piperidine-2,6-dione]
21 | – | – | 10 to 100 nM | 96% | Cc1c(C(=O)N2CCC(c3ccc4c(c3F)CN(C3CCC(=O)NC3=O)C4=O)CC2)[nH]c2cc(N3CCOCC3)ccc12 (centres unmarked) [Compound 116, 3-(4-fluoro-5-(1-(3-methyl-6-morpholino-1H-indole-2-carbonyl)piperidin-4-yl)-1-oxoinsoindolin-2-yl)piperidine-2,6-dione]
22 | – | 10.9% | 10 to 100 nM | – | Cc1c(C(=O)N2CCC(c3ccc4c(c3)C(=O)N(C3CCC(=O)NC3=O)C4=O)CC2)[nH]c2cc([N+](=O)[O-])ccc12 (centres unmarked) [Compound 95, 2-(2,6-dioxopiperidin-3-yl)-5-(1-(3-methyl-6-nitro-1H-indole-2-carbonyl)piperidin-4-yl)isoindoline-1,3-dione]
